In patent US20100317605A1, “THE USE OF EPIMEDIUM FLAVONES AND EFFECTIVE COMPONENTS THEREOF FOR THE PREPARATION OF MEDICAMENTS OF PROMOTING PROLIFERATIONS AND DIFFERENTIATIONS OF NERVE CELLS” (XUANWU HOSPITAL OF CAPITAL MEDICAL UNIVERSITY, priority 2007, published 2010):

Assays:
neural stem cells = assay: Differentiation of neural stem cells (second generation neurospheres) in medium without FBS; format: cell-based, SD rats
Protocol: The second generation of neurospheres in culture was taken, and the culture medium containing growth factors in the culture flask was removed. The neurospheres were randomly divided into two groups: (1) fetal bovine serum (FBS) control group: the culture medium was DMEM/F12+1% FBS; (2) epimedium flavanoide treatment group: the culture medium was DMEM/F12 (without FBS) added with epimedium flavanoide at a final concentration of 10, 50, 100, 200 and 400 μg/ml, respectively; (3) […] treatment group: the culture medium was DMEM/F12 (without FBS) added with […] final concentration of 10, 50, 100, 200 and 400 μg/ml, respectively. The three groups of the cells were inoculated in 24-well culture plates covered with polylysine. After 7 days of culture, the morphology of the cells was observed under inverted microscope, and fluorescent immunostaining was performed and photographed.

[1] = test system: primary cultured neural stem cells (NSC); assay: Survival and proliferation of primary cultured neural stem cells (neurospheres) in medium without growth factors; format: cell-based, SD rats
Protocol: The brains were taken from neonatal 1 day SD rats under a sterile condition, and the hippocampi were isolated and placed in culture dish containing a small amount of high glucose DMEM/F12; the meninges and blood vessels were divested, and the tissue was cut into small pieces, added with 5 ml cell culture medium, lightly blown and beaten into cell suspension with flame polished Pasteur sucker, and filtered by 400 screen mesh. The ratio of living cells was counted by trypan-blue staining. After the counting, the cells were placed into a 25 ml culture flask at a density of 2×10^6 cells/ml. Basal culture medium DMEM/F12 (1:1), cofactor B27(2%) and growth factor EGF (20 ng/ml)+bFGF (10 ng)/ml) were needed for conventional culture of NSC, and the cells grew as floating spheres in the culture medium. In order to observe the effect of different concentrations of epimedium flavanoide and its effective ingredient […] on primary cultured NSC, basal culture medium DMEM/F12 (1:1) and B27(2%) were used without growth factor, and epimedium flavanoide or […] final concentration of 10, 50, 100, 200, 400 μg/ml was added respectively. Cultures were maintained at 37° C. in a humidified atmosphere of 95% air/5% CO2. The growth state of the cells was observed under inverted microscope, and the diameter of the neurospheres was measured by micro ruler. The identification of neural stem cells: the neurospheres were taken, the culture medium containing growth factor EGF and bFGF were removed, DMEM/F12 containing 10% FBS was added, and inoculated in 24-well culture plates covered with polylysine. After 16 hours of culture, nestin and doublecortin (DCX) immunocytochemical staining was performed.

[2] = without fetal bovine serum, 7 days, vs FBS group, P<0.01 (FIG. 4)
[3] = without fetal bovine serum, 7 days, vs FBS group, P<0.01 (FIG. 5)

For `COc1ccc(-c2oc3c(CC=C(C)C)c(OC4OC(CO)C(O)C(O)C4O)cc(O)c3c(=O)c2OC2OC(C)C(O)C(O)C2O)cc1` (centres unmarked) [icarrin, 3-((6-deoxymannopyranosyl)oxo)-7-(pyranoglucosyloxo)-5-hydroxy-2-(4-methoxyphenyl)-8-(3-methyl-2-butenyl)-4H-1-benzopyran-4-one], the “morphology of differentiated cells” value (neural stem cells; 50 μg/ml, DMEM/F12 without FBS, 7 days (FIG. 3D)) was “the neurospheres grew well and almost completely adhered, and differentiated well”, the “growth, adhesion and differentiation of neurospheres” value (neural stem cells; 50, 100 μg/ml, without FBS, 7 days) was “the neurospheres grew well, almost completely adhered, and differentiated well” and the “distance of cell migration” value (neural stem cells; [2]) was “farther”. The “length of processes of differentiated cells grown from the neurospheres” value (neural stem cells; [2]) was “longer”, the “length of the axons of neurons” value (neural stem cells; [3]) was “longer” and the “number of NF-200 positive cells (mature neurons)” value (neural stem cells; [3]) was “increased”. The “growth state of neurospheres” value ([1]; 100 μg/ml, DMEM/F12 without growth factors, 7 days (FIG. 1D)) was “floating neurospheres were observed”, the “growth state and volume of neurospheres” value ([1]; 100 μg/ml, DMEM/F12 without growth factors, 28 days (FIG. 1E)) was “the neurospheres still grew well, and their volume further increased” and the “formation of floating neurospheres” value ([1]; 10-400 μg/ml, DMEM/F12 without growth factors, 7 days) was “many floating neurospheres were formed”. For the same compound, the “growth and volume of neurospheres” value ([1]; 100-200 μg/ml groups, without growth factors, 28 days) was “still grew well, but also became significantly larger in volume” and the diameter of neurospheres ([1]; without serum and growth factors, vs control group at 7, 14, 28 days, P<0.01 (FIG. 2)) was “increased gradually as the incubation time prolonged”.
